Source: patent US20050261189A1, “Methods of promoting cardiac cell proliferation” (Hydra Biosciences, Inc., priority 2004, published 2005)

Tests used:
beta-catenin = experiment: Nuclear beta-catenin assay in rat neonatal cardiomyocytes; type: cell-based; conditions: 16 hours, FIG. 23
Source text: We have used a nuclear beta-catenin assay to readily identify Wnt-related polypeptides that promote Wnt signaling via the canonical Wnt signaling pathway in cardiac cells. Specifically, and by way of example, we conducted a nuclear beta-catenin assay in rat neonatal cardiomyocytes to identify Wnt-related polypeptides that promote Wnt signaling via the canonical Wnt signaling pathway in cardiomyocytes. Such an assay conducted in neonatal or adult cardiac cells including, but not limited to, cardiomyocytes can be used to identify candidate agents that are capable of promoting Wnt signaling via the canonical Wnt signaling pathway in cardiac cells.
Briefly, neonatal cardiomyocytes were prepared and plated as outlined in detail above. Cells were washed two times with serum-free medium and were incubated in medium containing either a recombinant Wnt-related polypeptide, or some control factor. Cells were incubated for 16 hours, were fixed in 4% Formaldehye for 10 minuntes at room temperature, and were permeabilized with 0.2% Triton X-100 for 5 minutes. […] Although beta-catenin is not typically detectable by immunocytochemistry in the absence of active Wnt signaling, the nuclei were counterstained with 4′,6-diamidino-2-phenylindole (DAPI) to specifically confirm that the detected beta-catenin expression was localized to the nucleus. […]
Neonatal cardiomyocytes were cultured under one of the following conditions: medium alone (negative control), 10 mM LiCl, 2% fetal calf serum (FCS), 10% fetal calf serum (FCS), 25 ng/ml recombinant mouse Wnt5A (Catalog# 645-WN/CF), 50 ng/ml recombinant mouse Wnt5A (Catalog# 645-WN/CF), 100 ng/ml recombinant mouse Wnt5A (Catalog# 645-WN/CF), 25 ng/ml recombinant mouse Wnt3A (Catalog # 1324-WN/CF), 50 ng/ml recombinant mouse Wnt3A (Catalog # 1324-WN/CF), or 100 ng/ml recombinant mouse Wnt3A (Catalog # 1324-WN/CF). Following culture under one of the foregoing conditions, cells were analyzed by immunocytochemistry for expression of beta-catenin protein, and nuclear localization was verified by counterstaining the cells with DAPI. […]

[1] = tested on: neonatal rat cardiomyocytes; experiment: Neonatal rat cardiomyocyte proliferation, DNA synthesis by BrdU incorporation; type: cell-based; conditions: for cardiomyocyte proliferation: 48 hours, FIG. 22
Protocol: Neonatal rat cardiomyocytes were isolated from postnatal day 2 Wistar rat pups. Rat pups were anesthetized by hypothermia in ice water for 10 min and euthanized by decapitation. Hearts were isolated and placed in PBS-G (KCl 2 g/L; KH2PO4 2 g/L; NaCl 80 g/L; Na2HPO4.7H20 21.6 g/L; D-glucose 10 g/L) on ice. The atria were removed and ventricles were washed in PBS-G and cut into pieces smaller than 2 millimeters. PBS-G containing 119.6 units/ml collagenase type 2 and 0.2 mg/ml pancreatin was warmed to 37° C. Amounts of collagenase were adjusted for batch variations in units/mg activity. Ventricles were dissociated in collagenase/pancreatin solution for 15 minutes on a rotator at 37° C. Tissue was dispersed gently by pipetting and allowed to settle for 5 min at room temperature. Cell suspension from first dissociation was discarded and replaced with fresh collagenase/pancreatin solution, and incubated at 37° C. for 15 minutes on an orbital shaker. Tissue was again dispersed and allowed to settle. The cell supension was transferred to a new tube and incubated an additional 5 min at 37° C., and the digestion was stopped by addition of an equal volume of DMEM/20% NCS and stored on ice. Digestion of the ventricular tissue was repeated 3 additional times and supernatants were collected and stored on ice in equal volumes of DMEM/20% NCS.
Cells from all the fractions were collected at 200 RCF for 6 min at room temperature. Cell pellets were resuspended in 2 ml ADS buffer (6.8 g/L NaCl, 0.4 g/L KCl, 1.0 g/L D-glucose, 1.5 g/L NaH2PO4, 4.75 g/L HEPES, 0.1 MgSO4.7H2O). One ml of cell suspension was applied to two Percoll gradients set up in the following manner. The top Percoll gradient (density 1.059 g/ml) was generated by mixing Percoll stock with ADS buffer in a 9:11 ratio, and the bottom Percoll gradient (density 1.082 g/ml) was made by mixing Percoll stock and ADS buffer in a 13:7 ratio. Four ml Top Percoll was added to a 15 ml conical tube, and three ml Bottom Percoll was laid below it by placing a pipet tip at the bottom of the tube, then carefully withdrawing it as the solution was delivered. The gradients were centrifuged at 3000 rpm for 30 consecutive minutes at room temperature. Cardiac non-myocytes were located above the top percoll buffer while cardiac myocytes were located at the interface of the top and bottom percoll layers. Blood and undissociated tissue were found at the bottom of the tube. Cardiac myocytes were collected after the top percoll was aspirated, and resuspended in DMEM/10% FBS, then centrifuged at 200 RCF for 6 min. Pelleted myocytes were resuspended in plating medium containing DMEM with 25 mM HEPES, 5% horse serum, 4 mM glutamine, penicillin and streptomycin. Four volumes of DMEM/10% FBS were added and the cell suspension was passed through a 40 uM cell strainer. Cells were pre-plated in 10 cm tissue culture plates for 1 hour at 37° C. Unattached cells were collected from the medium and centrifuged at 200 RCF for 6 min. Pelleted myocytes were resuspended in plating medium containing 10 uM AraC at a density of 100000 cells/ml and 200 ul/well were distributed into 96 well plates which had previously been coated with 0.1% gelatin/12.5 ug/ml fibronectin at 37° C. for more than 4 hours. Plated cells were grown for at least 48 hours at 37° C. prior to use in further experiments.
Briefly, the experiments summarized in FIG. 15 and FIG. 16 were conducted as follows. Neonatal rat cardiomyocytes were prepared and cultured as outlined in example 1. […]

[2] = tested on: neonatal rat cardiomyocytes; experiment: Hypertrophic response: ANF and tropomyosin immunocytochemistry in neonatal rat cardiomyocytes; conditions: Wnt3A 150 ng/ml, phenylephrine as hypertrophic stimulus
Protocol: Briefly, neonatal rat cardiomyocytes were treated with serum or phenylephrine (two agents known to induce hypertrophy), or were treated with 150 ng/ml recombinant Wnt3A. Following treatment, the cells were analyzed by immunocytochemistry for expression of atrial naturietic factor (ANF) (rabbit anti-ANF/Peninsula laboratories/Bachem) or expression of tropomyosin (CH1 antibody available from Developmental Hybridoma).

[3] = tested on: one or more non-cardiac cells types; conditions: cited from earlier work
Sca1+ cell preparation = experiment: Viable cell count, Sca1+ adult cardiac cell preparation; type: cell-based, mouse; conditions: Sca1+ cell preparations, 3-4 days culture; recombinant Wnt3A at 50 ng/ml; FIG. 25a
Protocol: (§1) Whole hearts were obtained from adult mice (greater than 5 weeks of age). Cardiac tissue was minced and washed three times to remove blood. Cardiac cells were dissociated with pancreatin and collagenase for 15 minutes at 37° C. and washed. Following dissociation the unfractionated cells were either plated, or fractionated into a Sca1+ and Sca1− population prior to plating. These three cardiac cell populations (unfractionated cell preparation; Sca1+cell preparation; Sca1− cell preparation) were cultured in the presence of various Wnt-related compositions. Specifically, the cardiac cell preparations were cultured for 3-4 days in either L-cell conditioned medium alone; LWW60 conditioned medium; or culture medium containing purified Wnt3A protein. Following 3-4 days in culture, the cardiac cells were washed with PBS and trypsinized, and viable cells were counted.

β-catenin = β-catenin stabilization by immunocytochemistry in neonatal rat cardiomyocytes; type: cell-based; conditions: 48 hours in neonatal base medium; recombinant Wnt3A 167 ng/ml or 500 ng/ml, or serum; FIG. 19
Protocol: Briefly, neonatal rat cardiomyocytes were treated with either serum or with recombinant Wnt3A (e.g., 167 ng/ml or 500 ng/ml) in neonatal base medium for 48 hours. The treated cells were fixed, permeablilized with 0.5% Triton-X-100 for 15 minutes, and blocked in 5% goat serum in PBS-T for one hour. Mouse anti-β-catenin antibody (BD-Pharmingen) diluted 1:250 were incubated on cells for one hour. Cells were washed 3 times in PBS-T and incubated one hour in Alexa 594 goat anti-mouse antibody (Molecular Probes) at a dilution of 1:200.

[4] = tested on: unfractionated adult cardiac cells; experiment: Viable cell count, unfractionated adult cardiac cells; type: cell-based, mouse; conditions: unfractionated (whole heart) preparations, 3-4 days culture; recombinant Wnt3A at 50 ng/ml; FIGS. 24, 25a
Protocol: as §1

[5] = tested on: Wnt3A induced cardiomyocyte proliferation; experiment: Wnt antagonists co-administered with Wnt3A-L-cell supernatant, cardiomyocyte proliferation; type: cell-based, rat; conditions: 100 ng/ml of the Wnt inhibitor; FIG. 18
Protocol: To confirm that Wnt3A was responsible for the stimulation of cardiomyocyte proliferation observed in FIG. 17, we co-administered supernatant from Wnt3A expressing mouse L-cells and the Wnt antagonist dkk (recombinant dkk obtained from R&D Systems).
Nevertheless, the inhibition of Wnt3A induced cardiomyocyte proliferation by dkk supports the conclusion that Wnt3A is the active cardiomyocyte proliferative factor in the conditioned medium.
The experiments were conducted and analyzed as detailed above in examples 2 and 3.

[6] = recombinant mouse Wnt protein 25 ng/ml-100 ng/ml

Molecule: [Cl-].[Li+] [LiCl, lithium chloride, reference compound]
- beta-catenin nuclear localization (percentage of cells with nuclear beta-catenin staining) (beta-catenin; 10 mM LiCl, versus medium alone or 2% or 10% serum): promoted beta-catenin nuclear localization
- cardiomyocyte proliferation ([1]; LiCl 10 mM, 5 mM or 2.5 mM): promoted cardiomyocyte proliferation

Molecule: CNC[C@H](O)c1cccc(O)c1 [phenylephrine]
- ANF expression increased ([2]; FIG. 20): increased
- change in cardiomyocyte cell size and shape ([2]; FIG. 21): vastly different cell shape, size, and morphology

Molecule: Wnt3A
- beta-catenin nuclear localization (percentage of cells with nuclear beta-catenin staining) (beta-catenin; [6]): promoted beta-catenin nuclear localization
- Wnt signaling pathway shown in one or more non-cardiac cell types [3]: signal via the canonical pathway
- number of viable cells (Sca1+ cell preparation): also increased the number of viable cells
- stabilization of β-catenin (increased detection and nuclear localization), Wnt signaling (β-catenin): resulted in stabilization of β-catenin
- number of viable cells [4]: also increased the number of viable cells
- cardiomyocyte proliferation level compared with serum ([1]; higher doses of Wnt3A, FIG. 16): comparable to serum
- cardiomyocyte proliferation ([1]; recombinant Wnt3A 150, 50 or 17 ng/ml): promoted cardiomyocyte proliferation
- cardiomyocyte proliferation, dilution series ([1]; recombinant Wnt3A dilution series, FIG. 16): promoted cardiomyocyte proliferation in a dose dependent manner
- cardiomyocyte proliferation, as measured by incorporation of BrdU ([1]; recombinant mouse Wnt3A 0.06, 0.4, 2.3, 14, 83 and 500 ng/ml, FIG. 15): statistically significant, dose dependent increase in cardiomyocyte proliferation

B1: FRP3: Wnt inhibitor, secreted frizzled-related protein class (protein, UniProt Q92765 33-325, looked up)
Secreted frizzled-related …: AACEPVRIPLCKSLPWNMTKMPNHLHHSTQANAILAIEQFEGLLGTHCSPDLLFFLCAMYAPICTIDFQHEPIKPCKSVCERARQGCEPILIKYRHSWPENLACEELPVYDRGVCISPEAIVTADGADFPMDSSNGNCRGASSERCKCKPIRATQKTYFRNNYNYVIRAKVKEIKTKCHDVTAVVEVKEILKSSLVNIPRDTVNLYTSSGCLCPPLNVNEEYIIMGYEDEERSRLLLVEGSIAEKWKDRLGKKVKRWDMKLRHLGLSKSDSSNSDSTQSQKSGRNSNPRQARN
- abolition of Wnt3A induced cardiomyocyte proliferation [5]: did not

B2: Wnt5A: recombinant mouse Wnt5A (Catalog# 645-WN/CF) (protein, UniProt P22725 62-380, looked up)
Protein Wnt-5a: IIGAQPLCSQLAGLSQGQKKLCHLYQDHMQYIGEGAKTGIKECQYQFRHRRWNCSTVDNTSVFGRVMQIGSRETAFTYAVSAAGVVNAMSRACREGELSTCGCSRAARPKDLPRDWLWGGCGDNIDYGYRFAKEFVDARERERIHAKGSYESARILMNLHNNEAGRRTVYNLADVACKCHGVSGSCSLKTCWLQLADFRKVGDALKEKYDSAAAMRLNSRGKLVQVNSRFNSPTTQDLVYIDPSPDYCVRNESTGSLGTQGRLCNKTSEGMDGCELMCCGRGYDQFKTVQTERCHCKFHWCCYVKCKKCTEIVDQFVCK
- beta-catenin nuclear localization (percentage of cells with nuclear beta-catenin staining) (beta-catenin; [6]): did not promote beta-catenin nuclear localization
- Wnt signaling pathway shown in one or more non-cardiac cell types [3]: signal via the non-canonical signaling pathway

B3: FRP2: Wnt inhibitor, secreted frizzled-related protein class (protein, UniProt Q96HF1 25-295, looked up)
Secreted frizzled-related …: LFLFGQPDFSYKRSNCKPIPANLQLCHGIEYQNMRLPNLLGHETMKEVLEQAGAWIPLVMKQCHPDTKKFLCSLFAPVCLDDLDETIQPCHSLCVQVKDRCAPVMSAFGFPWPDMLECDRFPQDNDLCIPLASSDHLLPATEEAPKVCEACKNKNDDDNDIMETLCKNDFALKIKVKEITYINRDTKIILETKSKTIYKLNGVSERDLKKSVLWLKDSLQCTCEEMNDINAPYLVMGQKQGGELVITSVKRWQKGQREFKRISRSIRKLQC
- abolition of Wnt3A induced cardiomyocyte proliferation [5]: did not
